Measured values: patent US7205261B2, “Use of certain N-acylethanolamines to achieve ethylene- and cytokinin-like effects in plants and fungi” (Nutra-Park, Inc., priority 2002, dated 2007)
Like-named read-outs stand apart in the source and are kept apart here.

Experiments:
[1] = tested on: tomato variety FL47 mature green tomatoes; test: Tomato bioassay (spray application or vacuum infiltration of harvested mature green tomatoes, ripening judged by colour); type: in vivo; settings: 5 to 7 days after treatment, FIGS. 2-5
Procedure: Tomato bioassay: NAE solutions containing 20 ppm or 500 ppm of NAE were used to treat harvested tomatoes as described below. The solutions were prepared by dispersing a solid NAE compound in water through sonication.
Egg LPE was purchased from Avanti Polar Lipids (Alabaster, Ala.). Egg LPE solutions containing 20 ppm or 500 ppm LPE were used as positive controls in the assays described below. The solutions were prepared by dispersing LPE into water through sonication or aggressive agitation.
The tomatoes used in this study were tomato variety FL47 (cultivar), 6×6 mature green tomatoes of good quality MG3–4 ([…]: no apparent external change from green to pink). The tomatoes were purchased from West Coast Tomato (Palmetto, Fla.) and Dimare Tomato (Homestead, Fla.).
The system used for classifying tomato mature stages is as the follows: Green (Stage 1)—“Green” means that the surface of the tomato is completely green in color. The shade of green may vary from light to dark. Breakers (Stage 2)—“Breakers” means there is a definite “break” in color from green, to tannish-yellow, pink or red on not more than 10% of the surface. […] Red (R) (Stage 6)—“Red” means that more than 90% of the surface, in the aggregate, is red.
Locules contain hard, white substance. […] Seeds are forming and are white. […] Seeds are fully formed and are turning from white to beige. MG4-Fruit are softening a little but still completely green on the outside. Inside locular gel is completely formed with hints of pink coloration in the columella tissue. Seeds are dark beige to light brown.
In spray application bioassays, the tomatoes were placed in 100° F. water for 90 seconds, after which the tomatoes were removed from water and placed stem scar up onto a sheet of plastic. An NAE solution or LPE solution was sprayed onto the tomatoes at 30 psi using a flat fan tip situated approximately 8 to 10 inches above the tomatoes. The tomatoes were air dried and placed on a sheet of white paper with stem scar down under consistent environmental conditions. Five to seven days later, the ripening of the tomatoes were determined by visual observation of the color of the tomatoes.
In vacuum infiltration bioassay, each tomato was placed on top of a vacuum bell jar platform with stem scar facing up. 0.5 ml of NAE solution or LPE solution was placed onto stem scar and the glass bell jar lid was lowered onto the jar platform. The vacuum was started and the air escaped from the interior of the tomato causing the NAE solution or the LPE solution on the stem scar to bubble. After a preset time period, the air inlet was opened slowly to release vacuum in the bell jar. […] Five to seven days later, the ripening of the tomatoes were determined by visual observation of the color of the tomatoes.

[2] = tested on: Raphanus sativus L. cv. Cherry Belle cotyledons; test: Radish cotyledon bioassay (expansion growth and chlorophyll accumulation); type: in vivo; settings: for Change in fresh weight: continuous illumination, 25° C., ten cotyledons; for activity at 20 µg/mL: Raphanus sativus, read-out: Change in fresh weight, % of control; for cytokinin-like activities (summary of the examples) / ethylene-like activities (summary of the examples): summary statement in the description
Source text: Radish cotyledon bioassay: This bioassay using Raphanus sativus L. cv. Cherry Belle cotyledons was developed by Letham, DS (Physiologia Plantarum 25, 391–396, 1971, incorporated by reference in its entirety) to evaluate the efficacy of cytokinin on cell enlargement. Success using this assay is not restricted to radish. […] In addition to their effect on cell division, cytokinin plays a major role in driving cell enlargement. Compounds in this class of phytohormone and with cytokinin activity also help maintain photosynthetic activity and productivity and abolish proteolytic activity. In cotyledon leaf systems, a requirement for cytokinin is critical and removal of the roots (i.e. the presumed source of cytokinin) renders the cotyledon leaves unable to expand. Exposure to cytokinin (0.02–22 μg/ml) results in a dramatic increase in fresh weight of cotyledons within 72 hours. This effect is not observed with either gibberellin or auxin and is usually delayed or inhibited by abscisic acid and the ethylene precursor, 1-aminocyclopropane-1-carboxylic acid (ACC). […] Thus, the mode of action of cytokinin in this system appears to be similar to that of indole-3-acetic acid (IAA) in auxin-induced stem elongation, a process that depends on an increase in the mechanical extensibility of the cell wall. However, cytokinin antagonizes IAA-mediated cell elongation and appears to do so by promoting ethylene production. Furthermore, cytokinin-induced cell expansion is not usually accompanied by proton (H^+) extrusion and no change in plasma membrane ATPase activity is evident.
Seeds of Raphanus sativus L. cv. Cherry-Belle were germinated in darkness at 24° C. for 36 h in Petri dishes containing filter paper wetted with distilled water. The smaller of the two cotyledons was excised, the fresh weight determined, and 10 cotyledons placed adaxial side down on filter paper in Petri dishes containing 10 ml of KPO4 buffer (2 mM, pH 6.0) and the compounds to be tested at 20 mg/l. […] Chlorophyll content was determined after extraction of tissue into 80% ethanol (containing butylated hydroxytoluene (BHT) 10 mg/l) using the equations Chl a=(13.95A663)−(6.88A647) and Chl b=(24.96A652)−(7.32A663) as described by Lichtenthaler, HK, Methods in Enzymology 148: 350–382, 1987, incorporated by reference in its entirety. FIG. 6 illustrates the difference in cotyledon size in response to the cytokinin kinetin.

maize roots = test: Corn root bioassay (ethylene production by maize roots); type: in vivo, Zea mays L.; settings: for activity at 20 µg/mL: Zea mays, read-out: Ethylene, % of control; for activity at 20 µg/mL / Ethylene: 20 mg/l
Procedure: Corn root bioassay: It is well established that roots of Zea mays produce ethylene when exposed to a variety of stresses (for review, see Morgan, PW and Drew, MC, Physiologia Plantarum 100: 620–630, 1997). Mechanical impedance and hypoxia both induce ethylene formation and usually as early as 1 hour after exposure. In response to ethylene treatment, maize roots show decreased expansion and elongation, a high incidence of cell death and the formation of aerenchyma tissue—particularly evident when roots are exposed to hypoxic conditions (Drew, MC et al., Trends in Plant Science 5: 123–127, 2000, Morgan and Drew 1997).
Seeds of Zea mays L. were sown in flats of Perlite, covered with a layer of vermiculite, and irrigated daily with water and/or 1/10 Hoagland solution. Seedlings were cultivated under continuous illumination at 22–25° C. and used when 7 d old. Seedlings were removed from the Perlite and washed under running tap water. Seedlings were allowed to acclimate in water and/or 1/10 Hoagland solution for several hours before being transferred to Falcon tubes containing the test compounds (all 20 mg/l) prepared in 1/10 Hoagland solution. […] Roots were then transferred to gas-tight tubes each containing 200 μl of water. The tubes were sealed and incubated at 26° C. for 1–2 h in darkness before gas samples were drawn from the incubation tubes using a 1 ml syringe and assayed by gas chromatography (Romera, FJ et al. (1999) Annals of Botany 83, 51–55).

[3] = Table 3, 48 h incubation, 20 mg/l
[4] = experiment 2, 36 h illumination, roots incubated 2 h in darkness at 24° C.

Compound: CCCCCCCCCC(=O)NCCO [NAE-10:0, N-Decanoyl-2-aminoethanol]
- number of ripened tomatoes compared to the control group ([1]; sprayed with 500 ppm): higher number of ripened tomatoes
- number of ripened tomatoes compared to the control group ([1]; vacuum infiltrated with 20 ppm): higher number of ripened tomatoes
- Chlorophyll a/b ([2]; Experiment 1, 20 mg/l, 72 h): 1.5
- Change in fresh weight ([2]; Experiment 1, 20 mg/l, 72 h): 10.34 ± 3.28 mg
- Chlorophyll (mg/g FW) a + b ([2]; Experiment 2, 20 mg/l, 48 h): 1.41 mg/g FW
- Chlorophyll (μg/cotyledon) a + b ([2]; Experiment 2, 20 mg/l, 48 h): 22.57 μg/cotyledon
- Chlorophyll a/b ([2]; Experiment 2, 20 mg/l, 48 h): 1.8
- Change in fresh weight ([2]; Experiment 2, 20 mg/l, 48 h): 11.56 ± 2.16 mg
- activity at 20 µg/mL ([2]; Experiment 1, 20 mg/l, 72 h): 74%
- activity at 20 µg/mL ([2]; Experiment 2, 20 mg/l, 48 h): 143%
- chlorophyll content per unit mass (in words) [2, 3]: decreased chlorophyll content per unit mass
- chlorophyll per cotyledon (in words) [2, 3]: increased chlorophyll per cotyledon
- hormone-like activity with respect to expansion growth (in words) [2, 3]: cytokinin-like activity
- cytokinin-like activities (summary of the examples) [2]: cytokinin-like activities
- ethylene-like activities (summary of the examples) [2]: ethylene-like activities
- activity at 20 µg/mL (maize roots; experiment 1, 72 h): 124%
- activity at 20 µg/mL (maize roots; experiment 2, 36 h): 115%
- Ethylene (maize roots; [4]): 33.02 ± 9.63 pmol/g FW/h

Compound: CCCCCCCCCCCCCC(=O)NCCO [NAE-14:0, N-Tetradecanoyl-2-aminoethanol]
- number of ripened tomatoes compared to the control group ([1]; sprayed with 500 ppm): higher number of ripened tomatoes
- number of ripened tomatoes compared to the control group ([1]; vacuum infiltrated with 20 ppm): higher number of ripened tomatoes
- Chlorophyll (mg/g FW) a + b ([2]; Experiment 2, 20 mg/l, 48 h): 1.90 mg/g FW
- Chlorophyll (μg/cotyledon) a + b ([2]; Experiment 2, 20 mg/l, 48 h): 23.41 μg/cotyledon
- Chlorophyll a/b ([2]; Experiment 2, 20 mg/l, 48 h): 1.8
- Change in fresh weight ([2]; Experiment 2, 20 mg/l, 48 h): 7.91 ± 1.34 mg
- activity at 20 µg/mL ([2]; Experiment 2, 20 mg/l, 48 h): 98%
- cytokinin-like activities (summary of the examples) [2]: cytokinin-like activities

Compound: CCCC(=O)NCCO [NAE-4:0, N-Butyroyl-2-aminoethanol]
- Chlorophyll (mg/g FW) a + b ([2]; Experiment 2, 20 mg/l, 48 h): 2.00 mg/g FW
- Chlorophyll (μg/cotyledon) a + b ([2]; Experiment 2, 20 mg/l, 48 h): 23.49 μg/cotyledon
- Chlorophyll a/b ([2]; Experiment 2, 20 mg/l, 48 h): 1.9
- Change in fresh weight ([2]; Experiment 2, 20 mg/l, 48 h): 7.15 ± 1.16 mg
- activity at 20 µg/mL ([2]; Experiment 2, 20 mg/l, 48 h): 88%
- hormone-like activity with respect to expansion growth (in words) [2, 3]: ethylene-like activity
- cytokinin-like activities (summary of the examples) [2]: cytokinin-like activities
- ethylene-like activities (summary of the examples) [2]: ethylene-like activities
- increase of ethylene production (in words) (maize roots; other experiments using a different treatment time): effective

Compound: CCCCCCCC(=O)NCCO [NAE-8:0, N-Octanoyl-2-aminoethanol]
- Chlorophyll a/b ([2]; Experiment 1, 20 mg/l, 72 h): 1.5
- Change in fresh weight ([2]; Experiment 1, 20 mg/l, 72 h): 13.32 ± 6.40 mg
- Chlorophyll (mg/g FW) a + b ([2]; Experiment 2, 20 mg/l, 48 h): 1.75 mg/g FW
- Chlorophyll (μg/cotyledon) a + b ([2]; Experiment 2, 20 mg/l, 48 h): 22.27 μg/cotyledon
- Chlorophyll a/b ([2]; Experiment 2, 20 mg/l, 48 h): 1.8
- Change in fresh weight ([2]; Experiment 2, 20 mg/l, 48 h): 8.29 ± 0.72 mg
- activity at 20 µg/mL ([2]; Experiment 1, 20 mg/l, 72 h): 95%
- activity at 20 µg/mL ([2]; Experiment 2, 20 mg/l, 48 h): 102%
- chlorophyll accumulation (in words) ([2]; Table 2, 72 h incubation, 20 mg/l): greater effect than other NAEs
- ethylene-like activities (summary of the examples) [2]: ethylene-like activities
- activity at 20 µg/mL (maize roots; experiment 1, 72 h): 116%
- activity at 20 µg/mL (maize roots; experiment 2, 36 h): 193%
- Ethylene (maize roots; experiment 1, 72 h illumination, roots incubated 2 h in gas tight tubes): 685.2 ± 211.6 nL/g FW/h
- Ethylene (maize roots; [4]): 55.46 ± 31.59 pmol/g FW/h
- relative efficacy on ethylene formation (in words) (maize roots; second experiment (Table 5)): strongest effect
